Assay results published in patent US10130630B2, “BTK inhibitors” (MERCK SHARP & DOHME CORP., priority 2014, dated 2018).
Like-named read-outs stand apart in the source and are kept apart here.

What was measured:
[1] = tested on: adenosine uptake into HeLa cells; test: [3H]Adenosine uptake assay in HeLa cells; assay type: cell-based; conditions: 60 minutes uptake, read-out: ADU inhibition IC50 (adenosine uptake inhibition potency)
Description: Compounds were also screened in an adenosine uptake functional cellular assay using the protocol described below.
Adenosine uptake activity was determined by monitoring the accumulation of tritiated adenosine into HeLa cells (ATCC catalog # CCL-2) using a PMT-based radiometric detection instrument. In this assay, the potency (IC50) of each compound was determined from a ten point (1:3 serial dilution; final compound concentration range in assay from 10 μM to 0.032 nM) titration curve using the following outlined procedure. To each well of a 96-well CytoStar-T scintillating microplate (Perkin Elmer Catalog # RPNQ0163), 25 000 HeLa cells in 100 μL of growth medium comprising: Minimum Essential Media (Life Technologies Catalog # 11095-080)+10% (v/v) foetal bovine serum (FBS; Sigma Aldrich Catalog # F2442) was added. These cells were incubated overnight at 37° C. in a humidified atmosphere with 5% (v/v) CO2. After this time the growth medium was removed and replaced with 40 μL assay medium comprising: Hanks balanced salts solution (HBSS; Thermo Fisher Catalog # SH30268.01)+5% (v/v) FBS. Compound stock solutions in DMSO were diluted in assay medium to 2.5× final compound concentration maintaining a constant DMSO concentration of 0.25% (v/v). 40 μL of compound in assay medium was dispensed into individual wells of the Cytostar-T plates and the plates were incubated for 30 minutes under ambient laboratory conditions. Following this incubation, 20 μL of 500 nM [^3H]adenosine (American Radiolabeled Chemicals Inc. Catalog # ART0287) in assay medium was added and incubated for a further 60 minutes under ambient laboratory conditions. The amount of radiolabel accumulation was then determined using a Perkin Elmer Topcount NXT microplate reader. In brief, HeLa cells adhere to the bottom of the Cytostar-T plate, uptake of [^3H]adenosine into these cells brings the radiolabel into sufficient proximity to excite the scintillant in the base of the plates. These events are captured by single PMT, time-resolved coincidence counting. IC50 values were determined by 4 parameter robust fit of counts per second values vs. (Log10) compound concentrations.

[2] = biological target: T1, BTK enzyme (full-length BTK, hBTK) (Homo sapiens, UniProt Q06187); test: Btk enzyme activity assay (LANCE TR-FRET); assay type: biochemical; conditions: 50 pM hBTK, 25 μM ATP, 60 minute compound and enzyme incubation, read-out: BTK binding IC50
T1 construct: recombinant protein from baculovirus-transfected Sf9 cells: full-length BTK, 6HIS-tag cleaved; 6HIS (cleaved yes); made in house; host or cells: baculovirus-transfected Sf9 cells
Description: BTK enzymatic activity was determined with the LANCE (Lanthanide Chelate Excite) TR-FRET (Time-resolved fluorescence resonance energy transfer) assay. […] To each well of a black non-binding surface Corning 384-well microplate (Corning Catalog #3820), 5 nL of compound (2000 fold dilution in final assay volume of 10 μL) was dispensed, followed by the addition of 7.5 μL of 1× kinase buffer (50 mM Hepes 7.5, 10 mM MgCl2, 0.01% Brij-35, 1 mM EGTA, 0.05% BSA & 1 mM DTT) containing 5.09 pg/μL (66.67 pM) of BTK enzyme (recombinant protein from baculovirus-transfected Sf9 cells: full-length BTK, 6HIS-tag cleaved). Following a 60 minute compound and enzyme incubation, each reaction was initiated by the addition of 2.5 μL 1× kinase buffer containing 8 μM biotinylated “A5” peptide (Biotin-[…]-NH2) (SEQ.ID.NO.: 1), and 100 μM ATP. The final reaction in each well of 10 μL consists of 50 pM hBTK, 2 μM biotin-A5-peptide, and 25 μM ATP. Phosphorylation reactions were allowed to proceed for 120 minutes. Reactions were immediately quenched by the addition of 20 uL of 1× quench buffer (15 mM EDTA, 25 mM Hepes 7.3, and 0.1% Triton X-100) containing detection reagents (0.626 nM of LANCE-Eu-W1024-anti-phosphoTyrosine antibody, PerkinElmer and 86.8 nM of Streptavidin-conjugated Dylight 650, Dyomics/ThermoFisher Scientific). After 60 minutes incubation with detection reagents, reaction plates were read on a PerkinElmer EnVision plate reader using standard TR-FRET protocol. Briefly, excitation of donor molecules (Eu-chelate:anti-phospho-antibody) with a laser light source at 337 nm produces energy that can be transferred to Dylight-650 acceptor molecules if this donor:acceptor pair is within close proximity. Fluorescence intensity at both 665 nm (acceptor) and 615 nm (donor) are measured and a TR-FRET ratio calculated for each well (acceptor intensity/donor intensity). IC50 values were determined by 4 parameter robust fit of TR-FRET ratio values vs. (Log10) compound concentrations.
The following Table 2 provides specific IC50 values for all the examples. The IC50 values set forth below were determined according to Assay method described above.

T1 sequence (Q06187 whole entry): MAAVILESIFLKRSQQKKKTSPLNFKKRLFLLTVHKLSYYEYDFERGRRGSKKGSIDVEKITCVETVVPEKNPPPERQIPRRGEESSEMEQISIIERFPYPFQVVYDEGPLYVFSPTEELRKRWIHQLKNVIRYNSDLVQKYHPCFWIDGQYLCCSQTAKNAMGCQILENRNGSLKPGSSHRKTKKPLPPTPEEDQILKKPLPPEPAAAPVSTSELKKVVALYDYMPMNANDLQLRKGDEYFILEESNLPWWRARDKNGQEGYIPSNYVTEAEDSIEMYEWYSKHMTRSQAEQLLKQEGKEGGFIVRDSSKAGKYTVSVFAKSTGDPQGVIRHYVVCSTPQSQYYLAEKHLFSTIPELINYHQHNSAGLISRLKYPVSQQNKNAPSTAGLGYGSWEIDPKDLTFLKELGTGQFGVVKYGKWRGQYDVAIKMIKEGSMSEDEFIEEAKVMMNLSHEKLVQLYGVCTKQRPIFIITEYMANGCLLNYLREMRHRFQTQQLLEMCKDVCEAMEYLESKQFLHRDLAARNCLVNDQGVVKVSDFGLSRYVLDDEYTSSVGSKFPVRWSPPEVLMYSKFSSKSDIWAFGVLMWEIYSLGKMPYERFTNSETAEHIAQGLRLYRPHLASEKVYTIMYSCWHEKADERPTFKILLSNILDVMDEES

Row | Compound | IC50 ([1]; Homo sapiens, HeLa) [nM] | IC50 [2] [nM] | IC50 [1] [nM]
1 | CCOc1cc(C(=O)Nc2cc(C(F)(F)F)ccn2)cc(F)c1-c1nc([C@@H]2CC[C@@H]3N(C2)C(=O)C2(CC2)C3(F)F)n2ccnc(N)c12 [Compound 28, 4-{8-amino-3-[(6′R,8a′S)-1′,1′-difluoro-3′-oxohexahydrospiro[cyclopropane-1,2′-indolizin]-6′-yl]imidazo[1,5-a]pyrazin-1-yl}-3-ethoxy-5-fluoro-N-[4-(trifluoromethyl)pyridin-2-yl]benzamide] | 1950 | 1.54 | –
2 | CCOc1cc(C(=O)Nc2cc(C(F)(F)F)ccn2)ccc1-c1nc([C@H]2CN3C(=O)[C@H]4CCCN4C[C@@H]3CO2)n2ccnc(N)c12 [Compound 35, 4-{8-amino-3-[(3R,6aR,11aR)-6-oxooctahydro-1H,6H-pyrrolo [1′,2′:4,5]pyrazino[2,1-c][1,4]oxazin-3-yl]imidazo[1,5-a]pyrazin-1-yl}-3-ethoxy-N-[4-(trifluoromethyl)pyridin-2-yl] benzamide] | 1340 | 1.25 | –
3 | CCOc1cc(C(=O)Nc2cc(C(F)(F)F)ccn2)ccc1-c1nc([C@H]2CN3C(=O)C4(CC4)NC[C@@H]3CO2)n2ccnc(N)c12 [Compound 45, 4-{8-amino-3-[(3′R,9a′R)-6′-oxohexahydrospiro[cyclopropane-1,7′-pyrazino[2,1-c][1,4]oxazin]-3′-yl]imidazo[1,5-a]pyrazin-1-yl}-3-ethoxy-N-[4-(trifluoromethyl)pyridin-2-yl]benzamide] | 1580 | 0.241 | –
4 | CCOc1cc(C(=O)Nc2cc(C(F)(F)F)ccn2)ccc1-c1nc([C@@H]2CC[C@H]3[C@@H](O)C4(CC4)C(=O)N3C2)n2ccnc(N)c12 [Compound 11, 4-{8-amino-3-[(1′S,6′R,8a′S)-1′-hydroxy-3′-oxohexahydrospiro[cyclopropane-1,2′-indolizin]-6′-yl]imidazo[1,5-a]pyrazin-1-yl}-3-ethoxy-N-[4-(trifluoromethyl)pyridin-2-yl]benzamide] | 1990 | 0.701 | –
5 | CCOc1cc(C(=O)Nc2cc(C(F)(F)F)n(C)n2)c(Cl)cc1-c1nc([C@@H]2CC[C@@H]3N(C2)C(=O)C2(CC2)C3(F)F)n2ccnc(N)c12 [Compound 34, 4-{8-amino-3-[(6′R,8a′S)-1′,1′-difluoro-3′-oxohexahydrospiro[cyclopropane-1,2′-indolizin]-6′-yl]imidazo[1,5-a]pyrazin-1-yl}-2-chloro-5-ethoxy-N-[1-methyl-5-(trifluoromethyl)-1H-pyrazol-3-yl]benzamide] | 1580 | 6.95 | –
6 | CCOc1cc(C(=O)Nc2cc(C(F)(F)F)ccn2)ccc1-c1nc([C@@H]2CC[C@H]3CN4CCC[C@H]4C(=O)N3C2)n2ccnc(N)c12 [Compound 16, 4-{8-amino-3-[(5aS,8R,11aS)-11-oxodecahydro-1H-pyrido[1,2-a]pyrrolo[1,2-d]pyrazin-8-yl]imidazo[1,5-a]pyrazin-1-yl}-3-ethoxy-N-[4-(trifluoromethyl)pyridin-2-yl]benzamide] | 1670 | 0.489 | –
7 | Nc1nccn2c([C@@H]3CC[C@H]4[C@@H](O)C5(CC5)C(=O)N4C3)nc(-c3ccc(C(=O)Nc4cc(C(F)(F)F)ccn4)cc3)c12 [Compound 10, 4-{8-amino-3-[(1′S,6′R,8a′S)-1′-hydroxy-3′-oxohexahydrospiro[cyclopropane-1,2′-indolizin]-6′-yl]imidazo[1,5-a]pyrazin-1-yl}-N-[4-(trifluoromethyl)pyridin-2-yl]benzamide] | 861 | 0.952 | –
8 | CCOc1cc(C(=O)Nc2cc(C(F)(F)F)ccn2)ccc1-c1nc([C@@H]2CC[C@H]3CN4CCC[C@@H]4C(=O)N3C2)n2ccnc(N)c12 [Compound 15, 4-{8-amino-3-[(5aS,8R,11aR)-11-oxodecahydro-1H-pyrido[1,2-a]pyrrolo[1,2-d]pyrazin-8-yl]imidazo[1,5-a]pyrazin-1-yl}-3-ethoxy-N-[4-(trifluoromethyl)pyridin-2-yl]benzamide] | 1110 | 0.462 | –
9 | Cc1ccnc(NC(=O)c2ccc(-c3nc([C@@H]4CC[C@H]5C(=O)C6(CC6)C(=O)N5C4)n4ccnc(N)c34)cc2)c1 [Compound 8, 4-{8-amino-3-[(6′R,8a′S)-1′,3′-dioxohexahydrospiro[cyclopropane-1,2′-indolizin]-6′-yl]imidazo[1,5-a]pyrazin-1-yl}-N-(4-methylpyridin-2-yl)benzamide] | 50.9 | 2.07 | –
10 | CCOc1cc(C(=O)Nc2cc(C(F)(F)F)ccn2)ccc1-c1nc(C2CCC3N(C2)C(=O)CNC32CC2)n2ccnc(N)c12 (centres unmarked) [Compound 39, 4-[8-amino-3-(4′-oxohexahydro-2′H,6′H-spiro[cyclopropane-1,1′-pyrido[1,2-a]pyrazin]-7′-yl)imidazol[1,5-a]pyrazin-1-yl]-3-ethoxy-N-[4-(trifluoromethyl)pyridin-2-yl]benzamide] | 1350 | 0.322 | –
11 | CCOc1cc(C(=O)Nc2cc(C(F)(F)F)n(C)n2)cc(F)c1-c1nc(C2CCC3N(C2)C(=O)CC32CC2)n2c(F)cnc(N)c12 (centres unmarked) [Compound 23, 4-[8-amino-5-fluoro-3-(3′-oxohexahydro-5′H-spiro[cyclopropane-1,1′-indolizin]-6′-yl)imidazo[1,5-a]pyrazin-1-yl]-3-ethoxy-5-fluoro-N-[1-methyl-5-(trifluoromethyl)-1H-pyrazol-3-yl]benzamide] | – | 5.9 | 2090
12 | CCOc1cc(C(=O)Nc2cc(C(F)(F)F)ccn2)ccc1-c1nc([C@@H]2CC[C@H]3CN(CC)C4(CC4)C(=O)N3C2)n2ccnc(N)c12 [Compound 44, 4-{8-amino-3-[(7′R,9a′S)-2′-ethyl-4′-oxohexahydro-2′H-spiro[cyclopropane-1,3′-pyrido[1,2-a]pyrazin]-7′-yl]imidazo[1,5-a]pyrazin-1-yl}-3-ethoxy-N-[4-(trifluoromethyl)pyridin-2-yl]benzamide] | 785 | 0.249 | –
13 | CCOc1cc(C(=O)Nc2cc(C(F)(F)F)ccn2)ccc1-c1nc(C2CCC3N(C2)C(=O)CNC32CC2)n2ccnc(N)c12 (centres unmarked) [Compound 43, 4-[8-amino-3-(4′-oxohexahydro-2′H,6′H-spiro[cyclopropane-1,1′-pyrido[1,2-a]pyrazin]-7′-yl)imidazo[1,5-a]pyrazin-1-yl]-3-ethoxy-N-[4-(trifluoromethyl)pyridin-2-yl]benzamide] | – | 5.61 | 1190
